# Laboratory results reported in PubChem BioAssay (NCI).
#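 Method: 48-hour compound exposure of cells in 96-well plates, five concentrations, linear interpolation of endpoints. At the TGI there is no net growth.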
# How the values were obtained:
# Test in all cases: NCI tumour cell line growth inhibition, 48 h
# [1] = system: NCI-H522 lung
# [2] = system: SW-620 colon
# [3] = system: SNB-75 CNS
# [4] = system: DU-145 prostate
# [5] = system: OVCAR-4 ovarian
# [6] = system: EKVX NSCLC
# [7] = system: SK-MEL-28 melanoma
# [8] = system: OVCAR-3 ovarian
# [9] = system: HCT-15 colon
# [10] = system: SR leukemia
# [11] = system: HT29 colon
# [12] = system: IGROV1 ovarian
# [13] = system: SK-MEL-2 melanoma
# [14] = system: SN12C renal
# [15] = system: OVCAR-8 ovarian
# [16] = system: MDA-MB-435
# [17] = system: RPMI-8226 leukemia
# [18] = system: HOP-62 NSCLC
# [19] = system: OVCAR-5 ovarian
# [20] = system: COLO 205 colon
# [21] = system: NCI-H460 lung
# [22] = system: A498 renal
# [23] = system: HOP-92 NSCLC
# [24] = system: MALME-3M melanoma
# [25] = system: K-562 leukemia
# [26] = system: ACHN renal
# [27] = system: BT-549 breast
# [28] = system: PC-3 prostate
# [29] = system: 786-0 renal
# [30] = system: LOX IMVI melanoma
# [31] = system: HCT-116 colon
# [32] = system: SF-295 CNS
# [33] = system: SNB-19 CNS
# [34] = system: MDA-MB-231 breast
# [35] = system: TK-10 renal
# [36] = system: HCC-2998 colon
# [37] = system: MDA-N
# [38] = system: A549 NSCLC
# [39] = system: UO-31 renal
# [40] = system: NCI/ADR-RES ovarian
# [41] = system: U251 CNS
# [42] = system: UACC-257 melanoma
# [43] = system: HL-60(TB) leukemia
# [44] = system: SF-539 CNS
# [45] = system: CCRF-CEM leukemia
# [46] = system: MOLT-4 leukemia
# [47] = system: SK-OV-3 ovarian
# [48] = system: KM12 colon
# [49] = system: NCI-H226 lung
# [50] = system: NCI-H23 lung
# [51] = system: M14 melanoma
# [52] = system: CAKI-1 renal
# [53] = system: HS 578T breast
# [54] = system: RXF 393 renal
# [55] = system: T-47D breast
# [56] = system: SF-268 CNS
# [57] = system: MCF7 breast
# [58] = system: SK-MEL-5 melanoma
# [59] = system: UACC-62 melanoma
structure (smiles),measurement,setting,value
CC1(C)Oc2ccccc2OC1O (stereo not drawn),TGI,[1],> 100 µM
same,TGI,[2],> 100 µM
same,TGI,[3],> 100 µM
same,TGI,[4],> 100 µM
same,TGI,[5],> 100 µM
same,TGI,[6],> 100 µM
same,TGI,[7],> 100 µM
same,TGI,[8],> 100 µM
same,TGI,[9],> 100 µM
same,TGI,[10],> 100 µM
same,TGI,[11],> 100 µM
same,TGI,[12],> 100 µM
same,TGI,[13],> 100 µM
same,TGI,[14],> 100 µM
same,TGI,[15],> 100 µM
same,TGI,[16],> 100 µM
same,TGI,[17],> 100 µM
same,TGI,[18],> 100 µM
same,TGI,[19],> 100 µM
same,TGI,[20],> 100 µM
same,TGI,[21],> 100 µM
same,TGI,[22],> 100 µM
same,TGI,[23],> 100 µM
same,TGI,[24],> 100 µM
same,TGI,[25],> 100 µM
same,TGI,[26],> 100 µM
same,TGI,[27],> 100 µM
same,TGI,[28],> 100 µM
same,TGI,[29],> 100 µM
same,TGI,[30],> 100 µM
same,TGI,[31],> 100 µM
same,TGI,[32],> 100 µM
same,TGI,[33],> 100 µM
same,TGI,[34],> 100 µM
same,TGI,[35],> 100 µM
same,TGI,[36],> 100 µM
same,TGI,[37],> 100 µM
same,TGI,[38],> 100 µM
same,TGI,[39],> 100 µM
same,TGI,[40],> 100 µM
same,TGI,[41],> 100 µM
same,TGI,[42],> 100 µM
same,TGI,[43],> 100 µM
same,TGI,[44],> 100 µM
same,TGI,[45],> 100 µM
same,TGI,[46],> 100 µM
same,TGI,[47],> 100 µM
same,TGI,[48],> 100 µM
same,TGI,[49],> 100 µM
same,TGI,[50],> 100 µM
same,TGI,[51],> 100 µM
same,TGI,[52],> 100 µM
same,TGI,[53],> 100 µM
same,TGI,[54],> 100 µM
same,TGI,[55],> 100 µM
same,TGI,[56],> 100 µM
same,TGI,[57],> 100 µM
same,TGI,[58],> 100 µM
same,TGI,[59],> 100 µM
Cc1ccc(NC(=O)CC(=O)N2N=C(N(C)c3ccccc3)CC2c2ccccc2)cc1 (stereo not drawn),TGI,[1],> 100 µM
same,TGI,[2],> 100 µM
same,TGI,[3],77.9 µM
same,TGI,[4],> 100 µM
same,TGI,[5],> 100 µM
same,TGI,[6],> 100 µM
same,TGI,[7],> 100 µM
same,TGI,[8],> 100 µM
same,TGI,[9],> 100 µM
same,TGI,[10],> 100 µM
same,TGI,[11],> 100 µM
same,TGI,[12],> 100 µM
same,TGI,[13],> 100 µM
same,TGI,[14],> 100 µM
same,TGI,[15],> 100 µM
same,TGI,[16],> 100 µM
same,TGI,[17],> 100 µM
same,TGI,[18],> 100 µM
same,TGI,[19],> 100 µM
same,TGI,[20],> 100 µM
same,TGI,[21],> 100 µM
same,TGI,[22],> 100 µM
same,TGI,[23],> 100 µM
same,TGI,[24],> 100 µM
same,TGI,[25],> 100 µM
same,TGI,[26],> 100 µM
same,TGI,[27],> 100 µM
same,TGI,[28],> 100 µM
same,TGI,[29],> 100 µM
same,TGI,[30],> 100 µM
same,TGI,[31],> 100 µM
same,TGI,[32],> 100 µM
same,TGI,[33],> 100 µM
same,TGI,[34],> 100 µM
same,TGI,[35],> 100 µM
same,TGI,[36],> 100 µM
same,TGI,[37],> 100 µM
same,TGI,[38],> 100 µM
same,TGI,[39],> 100 µM
same,TGI,[40],> 100 µM
same,TGI,[41],> 100 µM
same,TGI,[42],> 100 µM
same,TGI,[43],> 100 µM
same,TGI,[44],> 100 µM
same,TGI,[45],> 100 µM
same,TGI,[46],> 100 µM
same,TGI,[47],> 100 µM
same,TGI,[48],> 100 µM
same,TGI,[49],> 100 µM
same,TGI,[50],> 100 µM
same,TGI,[51],> 100 µM
same,TGI,[52],> 100 µM
same,TGI,[53],> 100 µM
same,TGI,[54],> 100 µM
same,TGI,[55],> 100 µM
same,TGI,[56],> 100 µM
same,TGI,[57],> 100 µM
same,TGI,[58],> 100 µM
same,TGI,[59],> 100 µM
